The ED50 is the midpoint of the dose-response relation.

Active and inactive are the calls of the source. No cut-off for these calls is given here.

Assay [1] concerns Mus musculus. Put plainly: Antinociceptive activity against formalin-induced pain in ip dosed ddY mouse assessed as reduction of paw licking response during neurogenic phase pretreated for 10 mins before formalin challenge. The format is functional.
In assay [2] the test system is Mus musculus. The assay can be described thus: Antinociceptive activity against formalin-induced pain in ip dosed ddY mouse assessed as reduction of paw licking response during inflammatory phase pretreated for 10 mins before formalin challenge. The format is functional.
The test system of assay [3] is Mus musculus. Put plainly: Antinociceptive activity against formalin-induced pain in ip dosed ddY mouse assessed as reduction of paw licking response during neurogenic phase pretreated for 10 mins before formalin challenge relative to morphine. The format is functional.
In assay [4] the test system is Mus musculus. The assay can be described thus: Antinociceptive activity against formalin-induced pain in ip dosed ddY mouse assessed as reduction of paw licking response during inflammatory phase pretreated for 10 mins before formalin challenge relative to morphine. Type of assay: functional.
For assay [5], the system named is Mus musculus. The assay can be described thus: Antinociceptive activity against formalin-induced pain in ddY mouse assessed as reduction of paw licking response during neurogenic phase at 20 mg/kg, ip pretreated for 10 mins before formalin challenge in presence of Naloxone. The format is functional, organism-based. On the set-up: dose 20 mg/kg.

As for `COc1cc([C@H]2[C@H](C(=O)O[C@@H]3C[C@@H]4[C@@H](CN(C)C[C@@H]4C)[C@@H]3C)[C@H](c3ccc(O)c(OC)c3)[C@H]2C(=O)O[C@@H]2C[C@@H]3[C@@H](CN(C)C[C@@H]3C)[C@@H]2C)ccc1O` [INCARVILLATEINE], the Activity entry in the assay on Mus musculus [1] was “Dose-dependent effect”; in the assay on Mus musculus [2], “Dose-dependent effect”; in the assay on Mus musculus [3] it was 1.06; in the assay on Mus musculus [4] it was 1.33. The ED50 in the assay with Mus musculus [1] is 17.4 µmol/kg; in the assay with Mus musculus [2], 7.8 µmol/kg.
As for `CN1CC[C@]23c4c5ccc(O)c4O[C@H]2[C@@H](O)C=C[C@H]3[C@H]1C5` [MORPHINE], the figures for the ED50 with Mus musculus [1] and in the assay with Mus musculus [2] were 18.4 µmol/kg and 10.4 µmol/kg, respectively. Also, the outcome in the assay with Mus musculus [5] was inactive.

Values taken from ChEMBL document CHEMBL1144111, “Strong antinociceptive effect of incarvillateine, a novel monoterpene alkaloid from Incarvillea sinensis” (1999).
